Test results published in US9820487B2, “Abscinazole” (NATIONAL UNIVERSITY CORPORATION SHIZUOKA UNIVERSITY, priority 2014, dated 2017).

Legend:
[1] = target: T1, abscisic acid 8′-hydroxylase CYP707A3 (Arabidopsis thaliana, UniProt Q9FH76); assay: Abscisic acid 8′-hydroxylase CYP707A3 inhibition test; type: biochemical; details: CYP707A3 + NADPH-P450 reductase ATR1, substrate ABA, 30° C. 10 minutes; IC50 calculated from two concentrations
T1 sequence (Q9FH76 1-463): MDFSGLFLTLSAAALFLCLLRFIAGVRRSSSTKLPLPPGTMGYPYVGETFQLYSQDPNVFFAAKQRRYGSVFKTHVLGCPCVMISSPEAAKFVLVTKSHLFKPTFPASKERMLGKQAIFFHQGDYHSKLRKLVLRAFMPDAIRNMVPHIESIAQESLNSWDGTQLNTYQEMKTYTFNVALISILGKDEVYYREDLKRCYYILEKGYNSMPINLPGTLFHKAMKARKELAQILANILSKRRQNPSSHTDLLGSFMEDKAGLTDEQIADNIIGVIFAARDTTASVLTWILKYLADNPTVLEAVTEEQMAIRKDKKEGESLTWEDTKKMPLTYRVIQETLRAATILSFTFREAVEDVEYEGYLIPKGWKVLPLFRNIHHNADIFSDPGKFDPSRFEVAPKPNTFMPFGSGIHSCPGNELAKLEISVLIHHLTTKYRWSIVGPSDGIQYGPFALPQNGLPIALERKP
Procedure: In a 1.5 mL microtube, 10 μL of a solution of substrate 250 μM ABA in potassium/phosphate buffer (KPB), 5 μL of a solution of the sample in dimethylformamide, 435 μL of KPB and 40 μL of abscisic acid 8′-hydroxylase CYP707A3+NADPH-P450 reductase ATR1 were put and heated at 30° C. for 10 minutes. 10 μL of a solution of 5 mg/mL NADPH in KPB was added thereto thereby starting the enzyme reaction. The reaction was carried out at 30° C. for 10 minutes at a rotation speed of 1000 rpm, and 25 μL of an aqueous solution of 1 M sodium hydroxide was added thereto thereby terminating the reaction. The reaction solution was allowed to stand at 4° C. for 30 minutes and subsequently 50 μL of 1 M hydrochloric acid was added thereto to convert the enzyme metabolite to phaseic acid (PA). The enzyme reaction solution was subjected to an OASIS HLB cartridge (1 cc, 30 mg; washed with 1 mL of methanol (1% acetic acid) and equilibrated with 1 mL of water (1% acetic acid)) and washed with 1 mL of 10% methanol/water (1% acetic acid) thereby eluting phaseic acid with 1 mL of methanol (1% acetic acid). The eluate was concentrated under reduced pressure (toluene was added to azeotrope acetic acid), the obtained substance was dissolved in 50 μL of methanol. 20 μL of the solution was subjected to HPLC (column, YMC-Pack Hydrosphere C18 (6 mm inner diameter×150 mm length); flow rate 1 mL/min; detection 254 nm) analysis. The CYP707A3 inhibition rate of the samples was calculated in accordance with the following formula (3). Note that dimethylformamide was used for the control in place of the sample solution. Each sample was tested with two different concentrations to calculate the 50% inhibition concentration (IC50) based on the enzyme inhibition rates thereof The results are shown in Table 1.
Enzyme inhibition rate (%)={1-(PA peak area of each sample/PA peak area of control)}×100 . . . (3)

[2] = target: T2, ent-kaurene oxidase CYP701A6 (Oryza sativa subsp. japonica, UniProt Q5Z5R4); assay: Ent-kaurene oxidase CYP701A6 inhibition test; type: biochemical; details: CYP701A6 + NADPH-P450 reductase ATR2, substrate ent-kaurene, 30° C. 30 minutes; IC50 calculated from two concentrations
T2 sequence (Q5Z5R4 1-505): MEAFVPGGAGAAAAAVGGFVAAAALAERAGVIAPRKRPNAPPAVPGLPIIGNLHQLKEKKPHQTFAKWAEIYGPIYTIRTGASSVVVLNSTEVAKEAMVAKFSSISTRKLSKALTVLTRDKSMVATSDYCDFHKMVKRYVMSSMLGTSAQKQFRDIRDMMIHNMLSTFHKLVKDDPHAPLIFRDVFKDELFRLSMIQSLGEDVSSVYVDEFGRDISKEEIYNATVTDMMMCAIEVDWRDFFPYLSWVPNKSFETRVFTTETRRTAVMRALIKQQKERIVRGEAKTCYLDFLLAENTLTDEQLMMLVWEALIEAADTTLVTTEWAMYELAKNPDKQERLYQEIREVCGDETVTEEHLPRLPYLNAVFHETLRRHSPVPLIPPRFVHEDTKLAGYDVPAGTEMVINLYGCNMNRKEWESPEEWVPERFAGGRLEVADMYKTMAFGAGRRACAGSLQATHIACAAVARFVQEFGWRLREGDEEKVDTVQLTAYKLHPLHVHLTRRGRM
Procedure: To a 1.5 mL microtube, 8 μL of an aqueous solution of 500 μM ent-kaurene as a substrate in 45% cyclodextrin and 8μL of a solution of the sample in dimethylformamide were put. 10 μL of 2.32 μM ent-kaurene oxidase CYP701A6 and 10 μL of 4.6 unit/mL NADPH-P450 reductase ATR2, heated at 30° C. for 5 minutes in advance, were added thereto. 304 μL of ultra-pure water, 40 μL of 500 mM KPB and 20 μL of an aqueous solution of 20 mM NADPH, heated at 30° C. for 10 minutes in advance, were added thereto thereby starting the enzyme reaction. The reaction was carried out at 30° C. for 30 minutes at a rotation speed of 1000 rpm and 100 μL of 1 M hydrochloric acid was added thereto thereby terminating the reaction. 5 μL of 10 μM abietic acid as the internal standard was added thereto, and the solution was extracted with 400 μL of ethyl acetate. The resultant was dried over sodium sulfate and subsequently concentrated under reduced pressure. 50 μL of methanol and 5 μL of 2 M trimethyl silyldiazomethane were added thereto to methylate carboxylic acid and the resultant was thy-solidified using nitrogen. The solidified product was dissolved in 150 μL of hexane and 1 μL of the resultant solution was subjected to a GC-MS analysis to detect the enzyme metabolite ent-kaurene acid. The CYP701A6 inhibition rate of the samples was calculated in accordance with the following formula (4). Note that the peak area of ent-kaurene acid was calculated from the peak area of m/z 273 and that ent-kaurene acid was identified from the area ratio of m/z 257, 213. The peak area of abietic acid was calculated from the area of m/z 256, and abietic acid was identified from the area ratio of m/z 316. Note that dimethylformamide was used for the control in place of the sample solution. Each sample was tested with two different concentrations to act late the 50% inhibition concentration (IC50) based on the enzyme inhibition rates thereof.
Enzyme inhibition rate (%)={1-(Ent-kaurene acid peak area of each sample/Abietic acid peak area of each sample/(Ent-kaurene acid peak area of control/Abietic acid peak area of control }×100 . . . (4)

[3] = test system: seeds of thale cress (Arabidopsis thaliana, Col-0); assay: Thale cress seed germination inhibition test (2); type: in vivo; details: 120 hours after seed plantation (FIG. 3)
Procedure: Seeds of thale cress (Arabidopsis thaliana, Col-0) were immersed in […] an aqueous solution of 70% ethanol for 30 minutes, subsequently in 500 μL of 100% ethanol for 1 minute, washed three times in 1 mL of distilled water, then immersed in distilled water and, in a dark place, verbalized at 4° C. for 3 days. A solution of the sample in methanol and a solution of ABA in methanol were put in a 1.5 mL microtube, and methanol was removed therefrom under reduced pressure. An aqueous solution of 0.5% agar (containing 1/2 MS medium inorganic salts) at 70° C. was added thereto, followed by stirring the resultant. The obtained solution was placed in a 96-well plate to provide the medium containing the sample. 20 to 30 vernalized seeds of thale cress were planted in each well and cultured at 22° C. under continuous light to monitor the number of seeds germinated over time. The germination rate was calculated in accordance with the following formula (1). Note that the medium prepared using methanol in the same manner as above was used as an untreated control and a germination rate of 100% was achieved 72 hours later from the seed plantation. Germination rates 72 hours later from the seed plantation are shown in FIG. 1 and initial growth conditions of thale cress 120 hours later are shown in FIG. 2.
Germination rate (%)=Number of seeds germinated/Number of seeds planted×100 . . . (1) […]

Structure (SMILES)	potency estimated from few doses [1] [µM]	potency estimated from few doses [2] [µM]	seed germination inhibition compared with (−) form of Comparative Example 1 [3]
COCCOCCOCCOCC#Cc1ccc(/C=C(\C(O)C(C)(C)C)n2cncn2)cc1 (single isomer, unassigned) [Example 3 (−) Form, (E)-1-(4-(2,5,8,11-tetraoxatetradec-13-yn-14-yl)phenyl)-4,4-dimethyl-2-(1H-1,2,4-triazol-1-yl)pent-1-en-3-ol]	1.5	8.6	
CCCCOCCOCCOCC#Cc1ccc(/C=C(\C(O)C(C)(C)C)n2cncn2)cc1 (single isomer, unassigned) [Example 4 (−) Form]	0.2	0.77	
CCCCOCCOCCOCc1cn(-c2ccc(/C=C(\C(O)C(C)(C)C)n3cncn3)cc2)nn1 (single isomer, unassigned) [Comparative Example 1 (+) Form, 1-(4-(4-((2-(2-butoxyethoxy)ethoxy)methyl)-1H-1,2,3-triazol-1-yl)phenyl)-4,4-dimethyl-2-(1H-1,2,4-triazol-1-yl)pent-1-en-3-ol, reference compound]	1.1	1.3	
COCCOCCOCCOCC#Cc1ccc(/C=C(\C(O)C(C)(C)C)n2cncn2)cc1 (single isomer, unassigned) [Example 3 (+) Form, (E)-1-(4-(2,5,8,11-tetraoxatetradec-13-yn-14-yl)phenyl)-4,4-dimethyl-2-(1H-1,2,4-triazol-1-yl)pent-1-en-3-ol]	7.7	17	
CCCCOCCOCCOCC#Cc1cccc(/C=C(\C(O)C(C)(C)C)n2cncn2)c1 (single isomer, unassigned) [Example 2 (+) Form, (E)-1-(3-(3-(2-(2-butoxyethoxy)ethoxy)prop-1-yn-1-yl)phenyl)-4,4-dimethyl-2-(1H-1,2,4-triazol-1-yl)pent-1-en-3-ol]	0.24	0.12	
CCCCOCCOCCOCC#Cc1ccc(/C=C(\C(O)C(C)(C)C)n2cncn2)cc1 (single isomer, unassigned) [Example 4 (+) Form]	1	1.5	
CCCCOCCOCCOCc1cn(-c2ccc(/C=C(\C(O)C(C)(C)C)n3cncn3)cc2)nn1 (single isomer, unassigned) [Comparative Example 1 (−) Form, 1-(4-(4-((2-(2-butoxyethoxy)ethoxy)methyl)-1H-1,2,3-triazol-1-yl)phenyl)-4,4-dimethyl-2-(1H-1,2,4-triazol-1-yl)pent-1-en-3-ol, reference compound]	0.054	1.2	
CCCCOCCOCCOCC#Cc1cccc(/C=C(\C(O)C(C)(C)C)n2cncn2)c1 (single isomer, unassigned) [Example 2 (−) Form, (E)-1-(3-(3-(2-(2-butoxyethoxy)ethoxy)prop-1-yn-1-yl)phenyl)-4,4-dimethyl-2-(1H-1,2,4-triazol-1-yl)pent-1-en-3-ol]	0.012	0.062	can inhibit the seed germination even in lower concentrations
COCCOCCOCCOCC#Cc1cccc(/C=C(\C(O)C(C)(C)C)n2cncn2)c1 (single isomer, unassigned) [Example 1 (+) Form, (E)-1-(3-(2,5,8,11-tetraoxatetradec-13-yn-14-yl)phenyl)-4,4-dimethyl-2-(1H-1,2,4-triazol-1-yl)pent-1-en-3-ol]	1.2	1.6	
